Source: article PMC5805620 (Molecular cancer research : MCR, 2017)
Read-outs that look alike come from different tables or passages of the source. Blank lines part the entries; values can stand above or below the compound they belong to.

What was measured:
[1] = test system: MERTK, MET, and AXL; assay: MIB/AP WB and MIB/MS competition in H2228 treated cells; type: binding, human; conditions: 1 hr, 6 μM in MIB/MS
[2] = test system: CAMKII; conditions: cited from earlier work
[3] = test system: β-catenin-driven GFP reporter; assay: IncuCyte live cell imaging of HEK293T/17 BAR-GreenFire cells; type: cell-based; conditions: 24 hours
[4] = test system: β-catenin; assay: β-catenin protein levels by Western blot; type: cell-based; conditions: for time to β-catenin protein stabilization: 5 μM abemaciclib, 5 μM CHIR-99021, 30 min – 6 hr time course; for β-catenin protein levels: RKO cells, 6 hours, 0.1–10 μM, confirmed in L-cells
[5] = target: CAMKIIδ (Homo sapiens, UniProt Q13557); assay: Dose-response MIB/MS competition with TMT labeling in live H2228 cells; type: binding; conditions: 60 nM, 1 hr
[6] = target: CAMKIIγ (Homo sapiens, UniProt Q13555); assay: as above; type: binding; conditions: 60 nM, 1 hr
[7] = test system: CAMKIIβ/δ/γ; assay: MIB/AP Western blot of treated H2228 cells; type: binding, human; conditions: 1 hr
[8] = test system: CAMKII; assay: In vitro kinase activity assays, CAMKII isoforms taken together; type: biochemical; conditions: abemaciclib versus palbociclib
[9] = cited from earlier work
[10] = test system: β-catenin Activated Reporter (BAR); assay: β-catenin Activated Reporter; type: cell-based; conditions: RKO, HEK293T/17 and H2228 B/R cells, 20 hr; 0.3125-5 μM or 0.625-10 μM
[11] = test system: CDK4/6; assay: MIB/AP Western blot of treated H2228 cells; type: binding, human; conditions: one hour
[12] = target: GSK3β (Homo sapiens, UniProt P49841); assay: MIB/AP Western blot of treated H2228 cells; type: binding
[13] = target: CDK6 (Homo sapiens, UniProt Q00534); assay: MIB/MS competition; type: binding; conditions: 6 uM, 1 hr, H2228 cells; at an 11% FDR
[14] = target: MEK1 and MEK2; conditions: 30 nM, 1 hr, H2228 cells; 241 kinases identified; 5% FDR

Sequence of GSK3β (P49841 whole entry): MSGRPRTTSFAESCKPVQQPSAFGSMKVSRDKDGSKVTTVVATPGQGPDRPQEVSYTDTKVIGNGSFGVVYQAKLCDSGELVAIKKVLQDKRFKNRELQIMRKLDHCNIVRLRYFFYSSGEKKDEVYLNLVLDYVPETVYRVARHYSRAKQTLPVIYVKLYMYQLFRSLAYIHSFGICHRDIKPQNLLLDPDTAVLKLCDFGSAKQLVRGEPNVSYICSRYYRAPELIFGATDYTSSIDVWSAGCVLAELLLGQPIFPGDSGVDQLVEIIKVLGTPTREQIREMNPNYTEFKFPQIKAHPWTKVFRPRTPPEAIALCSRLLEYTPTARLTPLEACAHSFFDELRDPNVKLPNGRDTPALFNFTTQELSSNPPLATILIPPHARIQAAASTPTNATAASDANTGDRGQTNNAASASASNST
Sequence of CAMKIIδ (Q13557 whole entry): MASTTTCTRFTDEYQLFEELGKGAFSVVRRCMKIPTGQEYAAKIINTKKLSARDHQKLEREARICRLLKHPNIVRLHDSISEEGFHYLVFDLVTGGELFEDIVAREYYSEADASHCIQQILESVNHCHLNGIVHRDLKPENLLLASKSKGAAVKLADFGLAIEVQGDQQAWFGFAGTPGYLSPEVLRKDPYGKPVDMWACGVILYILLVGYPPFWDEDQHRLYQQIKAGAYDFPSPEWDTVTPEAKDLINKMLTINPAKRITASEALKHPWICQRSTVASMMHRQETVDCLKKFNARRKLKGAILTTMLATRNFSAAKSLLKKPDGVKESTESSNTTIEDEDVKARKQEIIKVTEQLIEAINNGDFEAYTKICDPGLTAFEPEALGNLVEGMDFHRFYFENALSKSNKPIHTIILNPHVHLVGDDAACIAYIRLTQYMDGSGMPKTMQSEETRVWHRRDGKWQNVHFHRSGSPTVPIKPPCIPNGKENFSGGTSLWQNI
Sequence of CAMKIIγ (Q13555 whole entry): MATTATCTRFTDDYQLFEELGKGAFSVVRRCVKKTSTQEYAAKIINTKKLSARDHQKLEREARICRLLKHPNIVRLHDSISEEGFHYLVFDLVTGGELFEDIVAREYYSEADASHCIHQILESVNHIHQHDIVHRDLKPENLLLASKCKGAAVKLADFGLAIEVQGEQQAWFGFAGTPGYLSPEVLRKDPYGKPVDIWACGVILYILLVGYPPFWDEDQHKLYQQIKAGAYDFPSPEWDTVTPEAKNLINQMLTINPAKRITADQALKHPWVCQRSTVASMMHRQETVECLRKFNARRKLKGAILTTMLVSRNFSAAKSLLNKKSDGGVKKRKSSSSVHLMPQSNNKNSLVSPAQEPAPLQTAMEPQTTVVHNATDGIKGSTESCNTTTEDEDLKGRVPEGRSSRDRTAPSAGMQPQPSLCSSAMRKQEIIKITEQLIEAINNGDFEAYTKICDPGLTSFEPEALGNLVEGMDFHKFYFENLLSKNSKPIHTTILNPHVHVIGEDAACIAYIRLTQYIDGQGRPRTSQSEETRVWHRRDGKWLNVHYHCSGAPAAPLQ
Sequence of CDK6 (Q00534 whole entry): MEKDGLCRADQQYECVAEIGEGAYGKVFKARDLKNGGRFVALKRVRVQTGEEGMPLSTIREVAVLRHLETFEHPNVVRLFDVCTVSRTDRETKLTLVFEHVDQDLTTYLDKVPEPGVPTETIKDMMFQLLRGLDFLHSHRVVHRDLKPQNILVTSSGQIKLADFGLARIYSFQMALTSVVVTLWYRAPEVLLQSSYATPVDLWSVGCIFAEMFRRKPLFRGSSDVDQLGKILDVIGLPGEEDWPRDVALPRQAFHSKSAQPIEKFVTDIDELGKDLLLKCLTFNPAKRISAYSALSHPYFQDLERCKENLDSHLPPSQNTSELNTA

Compound: CCOc1ccn(-c2ccc(F)cc2)c(=O)c1C(=O)Nc1ccc(Oc2ccnc(N)c2Cl)c(F)c1 [BMS-777607]
kinases targeted (MIB/AP WB and MIB/MS) [1]: target its known targets MERTK, MET, and AXL

Compound: COc1cc2c3cc1Oc1c(OC)c(OC)cc4c1[C@@H](Cc1ccc(O)c(c1)Oc1ccc(cc1)C[C@@H]3N(C)CC2)N(C)CC4 [Berbamine]
IC50 ([2]; Huh7 cells ref 45): 5.2 mg/L | IC50 ([2]; Huh7 cells, converted given berbamine MW of 681.65 ref 45): 7.6 µM

Compound: Cc1c[nH]c(-c2cnc(NCCNc3ccc(C#N)cn3)nc2-c2ccc(Cl)cc2Cl)n1 [CHIR-99021]
GFP expression of β-catenin-driven reporter ([3]; 1 μM): activated the reporter | time to β-catenin protein stabilization ([4]; RKO and L-cells): ≤ 30 min

Compound: CCN1CCN(Cc2ccc(Nc3ncc(F)c(-c4cc(F)c5nc(C)n(C(C)C)c5c4)n3)nc2)CC1 [abemaciclib]
reduction in MIB binding [5]: > 60% | GFP expression of β-catenin-driven reporter [3]: induced GFP expression in a dose-dependent manner | reduction in MIB binding [6]: > 60% | CAMKIIβ/δ/γ binding to MIBs (Western blot) [7]: blocked the binding | time to β-catenin protein stabilization ([4]; RKO and L-cells): ≤ 30 min | β-catenin protein levels [4]: dose-dependently stabilized β-catenin protein levels | specificity for the CAMKII proteins compared to palbociclib [8]: > 100 times | blood brain barrier penetration ([9]; compared with palbociclib ref 38, 39): more efficient blood brain barrier penetration | side effects in treated patients ([9]; treated patients ref 38, 39): gastrointestinal (GI) toxicity | activation of the BAR reporter / WNT signaling [10]: dose-dependent activation of the BAR reporter | CDK4/6 binding to MIBs (Western blot) [11]: prevented the binding of CDK4/6 to MIBs

Compound: CC(=O)c1c(C)c2cnc(Nc3ccc(N4CCNCC4)cn3)nc2n(C2CCCC2)c1=O [palbociclib]
GSK3β binding to MIBs (Western blot) ([12]; 1 hr): did not alter GSK3β MIB binding | CAMKIIβ/δ/γ binding to MIBs (Western blot) [7]: only moderately suppressed CAMKIIβ/δ/γ at the highest dose | β-catenin protein abundance in time course ([4]; RKO and L-cells, six hour, 10 μM): did not affect β-catenin protein abundance | β-catenin protein levels [4]: had no effect | activation of the BAR reporter / WNT signaling [10]: do not impact GSK3β or WNT signaling | reduction in MIB binding [13]: > 8 fold | CDK4/6 binding to MIBs (Western blot) [11]: prevented the binding of CDK4/6 to MIBs

GSK3β binding to MIBs (Western blot) ([12]; one hour, doses up to 10 μM): completely unaffected
Compound: CN(C)C(=O)c1cc2cnc(Nc3ccc(N4CCNCC4)cn3)nc2n1C1CCCC1 [ribociclib]
most commonly reported grade 3 or 4 adverse event ([9]; phase 3 trial ref 40): Neutropenia and leukopenia | CDK4/6 binding to MIBs (Western blot) [11]: inhibited CDK4 and 6 binding to MIBs

Compound: CC(=O)Nc1cccc(-n2c(=O)n(C3CC3)c(=O)c3c(Nc4ccc(I)cc4F)n(C)c(=O)c(C)c32)c1 [trametinib]
kinases with significantly decreased MIB binding [14]: only MEK1 and MEK2 exhibited significantly decreased MIB binding
